Species on record: Rattus norvegicus
Test: DrugMatrix - Regimen: Daily Repeat
Assay type: toxicity, organism-based, Sprague-Dawley
Parameters: regimen Daily Repeat, gender Male, age 6-8 weeks
Conditions: in vivo, po, route oral GAVAGE, vehicle .5 % CMC; for ABSOLUTE BASOPHIL / ABSOLUTE EOSINOPHIL / ABSOLUTE LYMPHOCYTE / ABSOLUTE MONOCYTE / ABSOLUTE SEGMENTED NEUTROPHIL / BASOPHIL / EOSINOPHIL / ERYTHROCYTE COUNT / HEMATOCRIT / HEMOGLOBIN / LEUKOCYTE COUNT / LYMPHOCYTE / MEAN CORPUSCULAR HEMOGLOBIN / MEAN CORPUSCULAR HEMOGLOBIN CONCENTRATION / MEAN CORPUSCULAR VOLUME / MONOCYTE / NEUTROPHIL / NUCLEATED RED BLOOD CELLS / PLATELET COUNT: tissue Blood; for ALANINE AMINOTRANSFERASE / ALBUMIN / ALKALINE PHOSPHATASE / ASPARTATE AMINOTRANSFERASE / BLOOD UREA NITROGEN / CARBON DIOXIDE / CHLORIDE / CHOLESTEROL / CREATINE PHOSPHOKINASE / CREATININE / GLUCOSE / LACTATE DEHYDROGENASE / LIPASE / PHOSPHORUS / POTASSIUM / SODIUM / TOTAL BILIRUBIN / TOTAL PROTEIN / URIC ACID: tissue Plasma
[1] = 10 mg/kg, 72 h, dose level Low, time 3 day
[2] = 10 mg/kg, 120 h, dose level Low, time 5 day
[3] = 1500 mg/kg, 72 h, dose level High, time 3 day
[4] = 1500 mg/kg, 120 h, dose level High, time 5 day

NS(=O)(=O)c1cc2c(cc1Cl)NCNS2(=O)=O [HYDROCHLOROTHIAZIDE]
ABSOLUTE BASOPHIL [1]: 0 CELLS/uL
ABSOLUTE EOSINOPHIL [1]: 69 CELLS/uL
ABSOLUTE LYMPHOCYTE [1]: 10610.67 CELLS/uL
ABSOLUTE MONOCYTE [1]: 107.67 CELLS/uL
ABSOLUTE SEGMENTED NEUTROPHIL [1]: 3446 CELLS/uL
BASOPHIL [1]: 0%
EOSINOPHIL [1]: 0.33%
ERYTHROCYTE COUNT [1]: 5.79 x10E6/uL
HEMATOCRIT [1]: 34.73%
HEMOGLOBIN [1]: 13.77 G/DL
LEUKOCYTE COUNT [1]: 14.23 x10E3/uL
LYMPHOCYTE [1]: 77.33%
MEAN CORPUSCULAR HEMOGLOBIN [1]: 23.8 pg
MEAN CORPUSCULAR HEMOGLOBIN CONCENTRATION [1]: 39.67 G/DL
MEAN CORPUSCULAR VOLUME [1]: 60.07 fL
MONOCYTE [1]: 1%
NEUTROPHIL [1]: 21.33%
NUCLEATED RED BLOOD CELLS [1]: 0 /100WBC
PLATELET COUNT [1]: 1306 x10E3/uL
ALANINE AMINOTRANSFERASE [1]: 49 u/L
ALBUMIN [1]: 4.17 G/DL
ALKALINE PHOSPHATASE [1]: 352 u/L
ASPARTATE AMINOTRANSFERASE [1]: 90.67 u/L
BLOOD UREA NITROGEN [1]: 14.33 mg/dL
CARBON DIOXIDE [1]: 24.33 mmol/L
CHLORIDE [1]: 103 MEQ/L
CHOLESTEROL [1]: 65.67 mg/dL
CREATINE PHOSPHOKINASE [1]: 517.67 u/L
CREATININE [1]: 0.15 mg/dL
GLUCOSE [1]: 149.33 mg/dL
LACTATE DEHYDROGENASE [1]: 306.67 u/L
LIPASE [1]: 10 u/L
PHOSPHORUS [1]: 12.73 mg/dL
POTASSIUM [1]: 6.56 MEQ/L
SODIUM [1]: 144.2 MEQ/L
TOTAL BILIRUBIN [1]: 0.2 mg/dL
TOTAL PROTEIN [1]: 5.87 G/DL
URIC ACID [1]: 2.5 mg/dL
ABSOLUTE BASOPHIL [2]: 0 CELLS/uL
ABSOLUTE EOSINOPHIL [2]: 0 CELLS/uL
ABSOLUTE LYMPHOCYTE [2]: 12129.67 CELLS/uL
ABSOLUTE MONOCYTE [2]: 37.67 CELLS/uL
ABSOLUTE SEGMENTED NEUTROPHIL [2]: 1466 CELLS/uL
BASOPHIL [2]: 0%
EOSINOPHIL [2]: 0%
ERYTHROCYTE COUNT [2]: 5.92 x10E6/uL
HEMATOCRIT [2]: 36.07%
HEMOGLOBIN [2]: 14.23 G/DL
LEUKOCYTE COUNT [2]: 13.63 x10E3/uL
LYMPHOCYTE [2]: 89.67%
MEAN CORPUSCULAR HEMOGLOBIN [2]: 24.03 pg
MEAN CORPUSCULAR HEMOGLOBIN CONCENTRATION [2]: 39.47 G/DL
MEAN CORPUSCULAR VOLUME [2]: 60.83 fL
MONOCYTE [2]: 0.33%
NEUTROPHIL [2]: 10%
NUCLEATED RED BLOOD CELLS [2]: 0 /100WBC
PLATELET COUNT [2]: 1189.67 x10E3/uL
ALANINE AMINOTRANSFERASE [2]: 46 u/L
ALBUMIN [2]: 4.07 G/DL
ALKALINE PHOSPHATASE [2]: 390.67 u/L
ASPARTATE AMINOTRANSFERASE [2]: 89.67 u/L
BLOOD UREA NITROGEN [2]: 13.67 mg/dL
CARBON DIOXIDE [2]: 25.33 mmol/L
CHLORIDE [2]: 101.67 MEQ/L
CHOLESTEROL [2]: 62 mg/dL
CREATINE PHOSPHOKINASE [2]: 269.33 u/L
CREATININE [2]: 0.2 mg/dL
GLUCOSE [2]: 162.33 mg/dL
LACTATE DEHYDROGENASE [2]: 281.67 u/L
LIPASE [2]: 9 u/L
PHOSPHORUS [2]: 11.27 mg/dL
POTASSIUM [2]: 6.59 MEQ/L
SODIUM [2]: 143.33 MEQ/L
TOTAL BILIRUBIN [2]: 0.17 mg/dL
TOTAL PROTEIN [2]: 5.83 G/DL
URIC ACID [2]: 2 mg/dL
ABSOLUTE BASOPHIL [3]: 0 CELLS/uL
ABSOLUTE EOSINOPHIL [3]: 0 CELLS/uL
ABSOLUTE LYMPHOCYTE [3]: 11188.67 CELLS/uL
ABSOLUTE MONOCYTE [3]: 0 CELLS/uL
ABSOLUTE SEGMENTED NEUTROPHIL [3]: 1278 CELLS/uL
BASOPHIL [3]: 0%
EOSINOPHIL [3]: 0%
ERYTHROCYTE COUNT [3]: 5.96 x10E6/uL
HEMATOCRIT [3]: 35.57%
HEMOGLOBIN [3]: 13.93 G/DL
LEUKOCYTE COUNT [3]: 12.47 x10E3/uL
LYMPHOCYTE [3]: 90%
MEAN CORPUSCULAR HEMOGLOBIN [3]: 23.43 pg
MEAN CORPUSCULAR HEMOGLOBIN CONCENTRATION [3]: 39.2 G/DL
MEAN CORPUSCULAR VOLUME [3]: 59.7 fL
MONOCYTE [3]: 0%
NEUTROPHIL [3]: 10%
NUCLEATED RED BLOOD CELLS [3]: 0.67 /100WBC
PLATELET COUNT [3]: 1140 x10E3/uL
ALANINE AMINOTRANSFERASE [3]: 52.67 u/L
ALBUMIN [3]: 4.17 G/DL
ALKALINE PHOSPHATASE [3]: 353.33 u/L
ASPARTATE AMINOTRANSFERASE [3]: 88.33 u/L
BLOOD UREA NITROGEN [3]: 19 mg/dL
CARBON DIOXIDE [3]: 31 mmol/L
CHLORIDE [3]: 95.33 MEQ/L
CHOLESTEROL [3]: 70.67 mg/dL
CREATININE [3]: 0.2 mg/dL
GLUCOSE [3]: 159.33 mg/dL
LACTATE DEHYDROGENASE [3]: 413 u/L
LIPASE [3]: 9.67 u/L
PHOSPHORUS [3]: 11.27 mg/dL
POTASSIUM [3]: 5.57 MEQ/L
SODIUM [3]: 141.57 MEQ/L
TOTAL BILIRUBIN [3]: 0.17 mg/dL
TOTAL PROTEIN [3]: 5.8 G/DL
URIC ACID [3]: 1.43 mg/dL
ABSOLUTE BASOPHIL [4]: 0 CELLS/uL
ABSOLUTE EOSINOPHIL [4]: 84 CELLS/uL
ABSOLUTE LYMPHOCYTE [4]: 12827 CELLS/uL
ABSOLUTE MONOCYTE [4]: 104 CELLS/uL
ABSOLUTE SEGMENTED NEUTROPHIL [4]: 1585 CELLS/uL
BASOPHIL [4]: 0%
EOSINOPHIL [4]: 0.67%
ERYTHROCYTE COUNT [4]: 5.59 x10E6/uL
HEMATOCRIT [4]: 33.87%
HEMOGLOBIN [4]: 13.63 G/DL
LEUKOCYTE COUNT [4]: 14.6 x10E3/uL
LYMPHOCYTE [4]: 88%
MEAN CORPUSCULAR HEMOGLOBIN [4]: 24.4 pg
MEAN CORPUSCULAR HEMOGLOBIN CONCENTRATION [4]: 40.23 G/DL
MEAN CORPUSCULAR VOLUME [4]: 60.63 fL
MONOCYTE [4]: 0.67%
NEUTROPHIL [4]: 10.67%
NUCLEATED RED BLOOD CELLS [4]: 0 /100WBC
PLATELET COUNT [4]: 1221.67 x10E3/uL
ALANINE AMINOTRANSFERASE [4]: 64.67 u/L
ALBUMIN [4]: 4.33 G/DL
ALKALINE PHOSPHATASE [4]: 393 u/L
ASPARTATE AMINOTRANSFERASE [4]: 80 u/L
BLOOD UREA NITROGEN [4]: 20 mg/dL
CARBON DIOXIDE [4]: 31.33 mmol/L
CHLORIDE [4]: 97 MEQ/L
CHOLESTEROL [4]: 69 mg/dL
CREATINE PHOSPHOKINASE [4]: 157.67 u/L
CREATININE [4]: 0.2 mg/dL
GLUCOSE [4]: 153.33 mg/dL
LACTATE DEHYDROGENASE [4]: 110.33 u/L
LIPASE [4]: 10 u/L
PHOSPHORUS [4]: 12.1 mg/dL
POTASSIUM [4]: 6.18 MEQ/L
SODIUM [4]: 144.7 MEQ/L
TOTAL BILIRUBIN [4]: 0.2 mg/dL
TOTAL PROTEIN [4]: 5.97 G/DL
URIC ACID [4]: 1.57 mg/dL
